Test results taken from patent US20240368191A1, “HETEROCYCLIC COMPOUNDS AND USES THEREOF” (Kumquat Biosciences Inc., priority 2021, published 2024).

Conditions: microsomes

N#Cc1cnn(C(=O)N2C3CCC2CN(c2nc(OC[C@@]45CCCN4C[C@H](F)C5)nc4c(F)c(-c5ccc(F)c6sc(N)c(C#N)c56)c(Cl)cc24)C3)c1 [Compound A278, 1-(3-(7-(2-amino-3-cyano-7-fluorobenzo[b]thiophen-4-yl)-6-chloro-8-fluoro-2-(((2R,7aS)-2-fluorotetrahydro-1H-pyrrolizin-7a(5H)-yl)methoxy)quinazolin-4-yl)-3,8-diazabicyclo[3.2.1]-octane-8-carbonyl)-1H-pyr-azole-4-carbonitrile]
T½ microsomal stability: greater than 10 mins
